Experiment [1] has as its target T1, recombinant human c-Met/HGF receptor (Homo sapiens, UniProt P08581).
T1 construct: His tag (pBlueBacHis2A vector); made in house; host or cells: Hi-5 cells (Trichoplusia ni), baculovirus
Briefly: In vitro receptor tyrosine kinase assay (DELFIA), c-Met/HGF receptor. The experiment is classed as biochemical. As for the experimental part:
Cell pellets were frozen at −80° C. until purification was performed.
(§1) The coated plates were washed and stored at 4° C. […] After incubation, the kinase reactions were quenched with EDTA and the plates were washed.

The target of the next experiment is T2, VEGF receptor KDR (Homo sapiens, UniProt P35968).
T2 construct: made in house; host or cells: Sf9 cells (Spodoptera frugiperda), baculovirus
T2 sequence (P35968 806-1356): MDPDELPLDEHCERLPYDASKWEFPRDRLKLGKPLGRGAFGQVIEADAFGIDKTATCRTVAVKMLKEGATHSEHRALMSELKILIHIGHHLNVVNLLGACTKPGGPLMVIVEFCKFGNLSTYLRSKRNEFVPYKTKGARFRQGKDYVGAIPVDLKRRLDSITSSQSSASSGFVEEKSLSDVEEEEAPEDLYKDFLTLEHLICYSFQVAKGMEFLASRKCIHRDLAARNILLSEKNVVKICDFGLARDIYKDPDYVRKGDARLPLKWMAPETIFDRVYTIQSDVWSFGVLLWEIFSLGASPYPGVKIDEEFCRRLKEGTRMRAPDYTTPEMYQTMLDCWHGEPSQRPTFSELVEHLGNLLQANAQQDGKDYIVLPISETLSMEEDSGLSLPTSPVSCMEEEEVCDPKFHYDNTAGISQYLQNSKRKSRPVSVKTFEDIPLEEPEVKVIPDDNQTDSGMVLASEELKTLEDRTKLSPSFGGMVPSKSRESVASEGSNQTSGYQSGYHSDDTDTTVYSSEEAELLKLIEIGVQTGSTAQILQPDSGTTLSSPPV
The experiment in a line: In vitro receptor tyrosine kinase assay (DELFIA), VEGF receptor KDR. The experiment is classed as biochemical. On the procedure: In the case of VEGF receptor KDR a 1.6-kb cDNA corresponding to the catalytic domain of VEGFR2 or KDR (Genbank accession number AF035121 amino acid 806 to 1356) was cloned into the Pst I site of the pDEST20 Gateway vector (Invitrogen) for the production of a GST-tagged version of that enzyme.
The GST-VEGFR2806-1356 protein was expressed in […] (Spodoptera frugiperda) upon infection with recombinant baculovirus construct. […] Cell pellets were frozen at −80° C. until purification was performed.
The supernatant (cell extract) was used as starting material for purification of GST-VEGFR2806-1356.
The supernatant was loaded onto a GST-agarose column (Sigma) equilibrated with PBS pH 7.3. Following a four column volume (CV) wash with PBS pH 7.3+1% Triton X-100 and 4 CV wash with buffer B (50 mM Tris pH 8.0, 20% glycerol and 100 mM NaCl), bound proteins were step eluted with 5 CV of buffer B supplemented with 5 mM DTT and 15 mM glutathion. GST-VEGFR2806-1356 enriched fractions from this chromatography step were pooled based on U.V. trace i.e. fractions with high O.D.280. Final GST-VEGFR2806-1356 protein preparations concentrations were about 0.7 mg/ml with purity approximating 70%.
as §1

Setting [2] is: recombinant c-Met IC, 10 uM ATP, DELFIA, read-out: C-Met (IC50).
Where [3] appears, read: GST-VEGFR2 806-1356, 0.6 uM ATP, DELFIA, read-out: VEGFR (IC50).

Read-outs that look alike come from different tables or passages of the source. Bounds are passed on as bounds.

T1 sequence (P08581 1078-1337): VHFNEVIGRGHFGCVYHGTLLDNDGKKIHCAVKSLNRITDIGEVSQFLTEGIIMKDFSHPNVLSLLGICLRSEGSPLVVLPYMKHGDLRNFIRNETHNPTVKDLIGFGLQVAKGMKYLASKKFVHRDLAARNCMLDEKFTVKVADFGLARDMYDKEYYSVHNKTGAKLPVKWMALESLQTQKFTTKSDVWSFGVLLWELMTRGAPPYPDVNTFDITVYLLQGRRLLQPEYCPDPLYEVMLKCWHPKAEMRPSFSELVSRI

`CCn1cnc(-c2cc3nccc(Oc4ccc(NC(=O)CC(=O)Nc5ccccc5F)cc4F)c3s2)c1` [Compound 30b, N^1-(4-(2-(1-Ethyl-1H-imidazol-4-yl)thieno[3,2-b]pyridin-7-yloxy)-3-fluorophenyl)-N^3-(2-fluorophenyl)malonamide]: in experiment [1] (setting [2]), the IC50 is 24 nM.

As to `Cn1ccnc1-c1cc2nccc(Oc3ccc(NC(=O)CC(=O)Oc4ccccc4)cc3F)c2s1` [Compound 47, N-{3-Fluoro-4-[2-(1-methyl-1H-imidazol-2-yl)-thieno[3,2-b]pyridin-7-yloxy]-phenyl}-malonamic acid phenyl ester], the IC50 in experiment [1] (setting [2]) stood at 173 nM; at VEGF receptor KDR (setting [3]), 14 nM. For `Cn1cncc1-c1cc2nccc(Oc3ccc(NC(=O)CC(=O)Nc4cccnc4)cc3F)c2s1` [Compound 41, N-{3-Fluoro-4-[2-(3-methyl-3H-imidazol-4-yl)-thieno[3,2-b]pyridin-7-yloxy]-phenyl}-N′-pyridin-3-yl-malonamide], in that order: 132 nM and 24 nM.

With `COc1ccccc1NC(=O)CC(=O)Nc1ccc(Oc2ccnc3cc(-c4ccc(CN5CCCC5)cc4)sc23)c(F)c1` [Compound 48, N^1-(3-Fluoro-4-(2-(4-(pyrrolidin-1-ylmethyl)phenyl)-thieno[3,2-b]pyridin-7-yloxy)phenyl)-N^3-(2-methoxyphenyl)malonamide], the results for the IC50 (in experiment [1] (setting [2]); on VEGF receptor KDR (setting [3])) were 60 nM and 13 nM, respectively.

Consider `CCn1cnc(-c2cc3nccc(Oc4ccc(NC(=O)CC(=O)Nc5ccccc5)cc4F)c3s2)c1` [drawing 291], for which the IC50 was under 50 nM in experiment [1] (read-out: CMET IC50) and 50 to 250 nM on VEGF receptor KDR (read-out: VEGFR IC50). `CC(C(=O)Nc1ccccc1)C(=O)Nc1ccc(Oc2ccnc3cc(-c4nccn4C)sc23)c(F)c1` (stereo not drawn) [Compound 38, N^1-(3-Fluoro-4-(2-(1-methyl-1H-imidazol-2-yl)thieno[3,2-b]pyridin-7-yloxy)phenyl)-2-methyl-N^3-phenylmalonamide]: the IC50 in experiment [1] (setting [2]) was 77 nM; at VEGF receptor KDR (setting [3]), 5 nM. Turning to `CCn1cnc(-c2cc3nccc(Oc4ccc(NC(=O)CC(=O)Nc5ccccc5OC)cc4F)c3s2)c1` [Compound 28b, N^1-(4-(2-(1-Ethyl-1H-imidazol-4-yl)thieno[3,2-b]pyridin-7-yloxy)-3-fluorophenyl)-N^3-(2-methoxyphenyl)malonamide], the IC50 in experiment [1] (setting [2]) was 25 nM; on VEGF receptor KDR (setting [3]), 3 nM. In the case of `O=C(CC(=O)Nc1ccc(Oc2ccnc3cc(C(=O)N4CCCC4)sc23)c(F)c1)Nc1ccccc1` [drawing 280], the IC50 (in experiment [1] (read-out: CMET IC50); on VEGF receptor KDR (read-out: VEGFR IC50)) was under 50 nM each time. As for `O=C(CC(=O)Nc1ccc(Oc2ccnc3ccsc23)c(F)c1)Nc1ccccc1` [Compound 5a, N^1-(3-Fluoro-4-(thieno[3,2-b]pyridin-7-yloxy)phenyl)-N^3-phenylmalonamide], the IC50 was 270 nM in experiment [1] (setting [2]) and 199 nM at VEGF receptor KDR (setting [3]). In the case of `CCn1cnc(-c2cc3nccc(Oc4ccc(NC(=O)CC(=O)Nc5ccccc5)cc4F)c3s2)c1` [Compound 5d, N^1-(4-(2-(1-Ethyl-1H-imidazol-4-yl)thieno[3,2-b]pyridin-7-yloxy)-3-fluorophenyl)-N^3-phenylmalonamide], the concentration for half-maximal inhibition (IC50) turned out to be 19 nM in experiment [1] and 5 nM on VEGF receptor KDR (setting [3]). Regarding `CN(C)[C@@H]1CCN(C(=O)c2cc3nccc(Oc4ccc(NC(=O)CC(=O)Nc5ccccc5)cc4F)c3s2)C1` [Compound 5g, (R)—N^1-(4-(2-(3-(Dimethylamino)pyrrolidine-1-carbonyl)thieno[3,2-b]pyridin-7-yloxy)-3-fluorophenyl)-N^3-phenylmalonamide], the values for the IC50 (in experiment [1] (setting [2]); at VEGF receptor KDR (setting [3])) were 65 nM and 89 nM, respectively.

By IC50 is commonly meant the concentration that inhibits the measured activity by half.

(Values after patent US8329726B2, “Inhibitors of VEGF receptor and HGF receptor signaling” (MethylGene Inc., priority 2005, dated 2012).)
